Source: patent US20200230205A1, “COMPOSITIONS AND METHODS FOR TREATING MYELIN DISORDERS” (CASE WESTERN RESERVE UNIVERSITY, priority 2017, published 2020)

Tests used:
Format in all cases: cell-based, mouse
[1] = tested on: OPC conditioned media protease activity; test: Conditioned media protease activity assay (EnzChek, quenched casein); details: OPCs treated with 2.5 μM ISP, vs vehicle and SISP
Protocol: Around 1×10^6 OPCs were plated per well on PLL, 1 μg/mL laminin, and 2 μg/mL aggrecan coated 6-well plates and treated with vehicle, 2.5 μM ISP or SISP for 2 days at 37° C. CM was collected, cell-strained, and placed on ice until assayed. ThermoFisher Protease Assay Kit (E66383, EnzChek, ThermoFisher) was used to assay protease activity. 1× of the EnzChek mixture was mixed 1:1 with the CM from each group and incubated at RT O/N with gentle shaking. 3 replicates were performed for each sample. Samples were analyzed using a spectrophotometer at 502/528 nm excitation and emission to assess cleaved and fluorescing casein. Fluorescence units reported have been blanked with EnzChek and cell culture media mixture.

MMP-2 = MMP-2 in OPC conditioned media or lysate (gelatin zymography, western blot)
Protocol: To assess MMP-2 or 10 in OPC CM or lysates, OPCs were incubated on precoated PLL, aggrecan, and laminin as described above. OPCs were treated with vehicle, 2.5 μM ISP or SISP for 2 days at 37° C. CM was then harvested and concentrated using Milipore Ultracel YM-C centrifugal filter units at max speed (Eppendorf Centrifuge 5415D) for 30 minutes at 4° C. […] of concentrated CM was loaded into each lane. OPC lysates were assessed using western blot techniques described below with […] protein loaded from each group.
Tissue samples or cerebellar slices or purified OPC cells were homogenized with RIPA lysis buffer and protein concentration was determined by Pierce BCA protein assay kit according to the manufacture instruction (Thermo Fisher). Then, equal amounts of protein were loaded to 15% SDS-PAGE gels, and electrophoretically transferred to PVDF membranes (Millipore). The membranes were blocked in 0.1% TPBS buffer with 5% non-fat milk for 1h at room temperature and probed with indicated primary antibodies overnight at 4° C. and followed by secondary antibody conjugated to horseradish peroxidase (HRP). The following primary antibodies were used: MBP (SMI-99P, Covance, 1:1000), CS-56 (C8035, Sigma, 1:1000), Laminin (L9393, Sigma, 1:1000), GAPDH (AF5718, R and D Systems, 1:1000), MMP-2 (AF1488, R and D Systems, 1:1000), MMP-10 (MAB910, R and D Systems, 1:1000), and […] (sc-47778, Santa Cruz, 1:1000). Enhanced chemiluminescence was performed with a West Pico Kit (Thermo Fisher) and detected by FluorChem E system (ProteinSimple, USA). The density of bands was quantified using ImageJ software (NIH).
CM was collected from 1×10^6 OPCs incubated on PLL, 1 μg/mL laminin, and 2 μg/mL aggrecan coated 6-well plates. OPCs were treated with vehicle, 2.5 μM ISP or SISP for 2 days at 37° C. […] Following washes with destaining buffer (40% MeOH, 10% Acetic Acid), Zymograms were imaged and the amount of gelatin degradation was assessed using ImageJ in a method described in the western blot section.

MMP-10 = MMP-10 western blot of OPC conditioned media; details: OPC CM, 2.5 μM peptide, same as vehicle
Protocol: To assess MMP-2 or 10 in OPC CM or lysates, OPCs were incubated on precoated PLL, aggrecan, and laminin as described above. OPCs were treated with vehicle, 2.5 μM ISP or SISP for 2 days at 37° C. CM was then harvested and concentrated using Milipore Ultracel YM-C centrifugal filter units at max speed (Eppendorf Centrifuge […]) for 30 minutes at 4° C. […] of concentrated CM was loaded into each lane. OPC lysates were assessed using western blot techniques described below with […] protein loaded from each group. Tissue samples or cerebellar slices or purified OPC cells were homogenized with RIPA lysis buffer and protein concentration was determined by Pierce BCA protein assay kit according to the manufacture instruction (Thermo Fisher). Then, equal amounts of protein were loaded to 15% SDS-PAGE gels, and electrophoretically transferred to PVDF membranes (Millipore). The membranes were blocked in 0.1% TPBS buffer with 5% non-fat milk for 1h at room temperature and probed with indicated primary antibodies overnight at 4° C. and followed by secondary antibody conjugated to horseradish peroxidase (HRP). […] Enhanced chemiluminescence was performed with a West Pico Kit (Thermo Fisher) and detected by FluorChem E system (ProteinSimple, USA). The density of bands was quantified using ImageJ software (NIH).

GRKKRRQRRRCDMAEHMERLKANDSLKLSQEYESI [ISP]
protease activity (fluorescence A.U.) [1]: increased protease activity
MMP-2 gelatin-degrading activity, zymography (MMP-2; OPC CM, 2.5 μM ISP vs controls): significantly increased
MMP-2 expression in OPC lysates normalized over GAPDH (MMP-2; OPC lysates, ISP): decrease in MMP-2 expression
MMP-2 in OPC CM, western blot (MMP-2; concentrated OPC CM, 2.5 μM ISP): clearly enhanced
MMP-10 secretion, western blot (MMP-10): equally low amounts
